Source: patent publication US11840551B2, “Compositions and methods of modulating the immune response by activating alpha protein kinase 1” (Shanghai Yao Yuan Biotechnology Co., Ltd., priority 2017, dated 2023)

How the values were obtained:
[1] = target: T1, ALPK1 (Homo sapiens, UniProt Q96QP1); assay: IL8 secretion in HEK293 cells (IL8 ELISA) as indicator of ALPK1 activation; conditions: cells cultured with fetal bovine, human or mouse serum
Procedure: Phosphatase such as the alkaline phosphatase may be responsible for H1b-ADP hydrolysis. We pre-mixed H1b-ADP with phosphatase inhibitor sodium orthovanadate (Na3VO4) before incubation with FBS. […] We hypothesized that the accumulation of hydrolysis product AMP can inhibit phosphatase activity.
A number of H1b-ADP derivative compounds were made as described herein and tested for biological activity as agonists of ALPK1 in vitro. In these experiments, serial dilutions of the compounds were added to the tissue culture media of HEK293 cells with (FIG. 27B, FIG. 28B, FIG. 29B) or without (FIG. 26, FIG. 27A, FIG. 28A, FIG. 29A) 10% FBS, as indicated in the figures. After 4 hours, the cell supernatant was collected and analyzed for IL8 concentration using IL8 ELISA (BD) as an indicator of ALPK1 activation.

[2] = tested on: mouse bone marrow-derived macrophages; assay: Cxcl1 mRNA expression in bone marrow-derived macrophages (qPCR); assay type: cell-based; conditions: 0.4 nM or 2 nM H1b-ADP, 2.5 hours
Procedure: In these experiments, mouse bone marrow-derived macrophages were treated with 0.4 nM or 2 nM H1b-ADP for 2.5 hours and harvested for mRNA expression analysis of Cxcl1 by qPCR. […] Accordingly, very low doses of H1b-ADP, or an agonist thereof, may be used to enhance or potentiate an immune response in a local tissue.

[3] = tested on: CT26 cells; assay: mRNA expression in CT26 tumor tissue after intratumoral injection (qPCR); assay type: in vivo, BALB/c mice; conditions: H1b-ADP 2.5 μg, 250 ng, 50 ng intratumoral, 4 hours post-injection
Procedure: We next asked whether H1b-ADP caused an increase in pro-inflammatory cytokines within the tumor. Tumor cells (2×10^5 per 100 μL CT26 cells) were inoculated subcutaneously into the right flank of BALB/c mice. 2.5 μg (n=2), 250 ng (n=2), 50 ng (n=2) of H1b-ADP or control (n=2) was intratumorally injected (20 uL) at day 7 post inoculation. 4 hours post-injection, tumor issues were dissected and harvested. Total RNA was isolated (TRIzol™, ThermoFisher) and cDNA was synthesized (PrimeScript™ RT reagent Kit, Takara) and amplified (AceQ™ qPCR SYBR™ Green Master Mix, Vazyme Biotech using a QuantStudio™ 7 Flex Real-Time PCR Systems (ThermoFisher) according to manufacturers' protocols.

[4] = target: T1, ALPK1; assay: In vitro kinase assay of ALPK1-dependent TIFA phosphorylation; assay type: biochemical
Procedure: We performed an in vitro kinase assay with H1b-ADP and H1b-ADP-6L along with ALPK1 protein (2 nM), and TIFA protein (1.6 uM) in kinase buffer containing 50 uM ATP. TIFA phosphorylation was analyzed by denaturing gel electrophoresis followed by western blotting using an anti-phosphothreonine antibody. H1b-ADP or H1b-ADP-6L was added at 2 nM, 0.4 nM, 80 pM, 16 pM, and 3 pM.
To test this, we performed an in vitro kinase reaction for ALPK1-dependent TIFA phosphorylation in the presence of either HBP or HIdA purified from E. coli containing inactivated HIdE, or in the presence of HBP and HIdA purified from the same HIdE wild-type E. coli used in the previous experiments. Phosphorylated TIFA (three concentrations, 1%, 0.2% and […]) was detected as described above by denaturing gel electrophoresis followed by Western analysis.

[5] = tested on: phosphatase activity in the serum; assay: Incubation of H1b-ADP with FBS, product analysed by LC-MS; assay type: in vitro ADME, bovine; conditions: increasing incubation time, LC-MS; product determined to be AMP
Source text: FBS contains 110-352 μU/ml alkaline phosphatase.

[6] = target: T1, ALPK1; assay: Cell-free kinase assay of ALPK1-dependent phosphorylation of IκB; assay type: biochemical; conditions: 2 nM ALPK1, with or without ATP, 1 hour
Procedure: We next tested whether H1b-ADP-induced autophosphorylation of ALPK1 was effective to activate NFκB using phosphorylation of IκB as a marker for this activity. Phosphorylation assays were performed according to standard protocols and phosphorylated protein was detected by gel electrophoresis and Western blotting using an antibody that detects phosphorylated IκB. Briefly, assays were performed in a 20 μl volume at 25° C. in assay buffer (25 mM HEPES pH 7.5, 50 mM KCl, 0.1 mM EDTA, 0.1 mM EGTA, 2 mM DTT, 1.5 mM CaCl2, 10 mM MgCl2) containing 2 nM ALPK1 and H1b-ADP […] with or without ATP, or either ALPK1 alone or H1b-ADP alone, both in the presence of ATP. After 1 hour of incubation, the reaction was loaded to denaturing gel for protein electrophoresis and Western was performed to detect phosphorylation of 1 kB using p-IkB antibody (Abcam).

[7] = target: T1, ALPK1; assay: Thermal shift assay (SYPRO Orange) for binding to ALPK1; conditions: ALPK1 7 uM; 1, 5, 25, 125 uM compound; H1b-ADP shift at 5, 25 and 125 uM
Source text: The thermal shift assay is widely used to determine the binding of a molecule to a protein of interest. The assay is based on the increase in thermal energy required for denaturation of a protein where another molecule is bound to the protein. SYPRO Orange is a fluorescent compound used in the detection of thermal shift. SYPRO Orange binds to hydrophobic surfaces of the protein, and water strongly quenches its fluorescence. When the protein unfolds, the exposed hydrophobic surfaces bind the dye, resulting in an increase in fluorescence. When another molecule is bound to the protein, an increase in the temperature required for unfolding of the protein is observed.
This assay system was used to determine whether or not chemically synthesized HBP, HMP-1bP, and H1b-ADP directly bind to ALPK1. […] Only H1b-ADP induced a shift of more than 1 degree, at each of the three highest concentrations tested, 5 uM, 25 uM, and 125 uM.

T1 sequence (Q96QP1 whole entry): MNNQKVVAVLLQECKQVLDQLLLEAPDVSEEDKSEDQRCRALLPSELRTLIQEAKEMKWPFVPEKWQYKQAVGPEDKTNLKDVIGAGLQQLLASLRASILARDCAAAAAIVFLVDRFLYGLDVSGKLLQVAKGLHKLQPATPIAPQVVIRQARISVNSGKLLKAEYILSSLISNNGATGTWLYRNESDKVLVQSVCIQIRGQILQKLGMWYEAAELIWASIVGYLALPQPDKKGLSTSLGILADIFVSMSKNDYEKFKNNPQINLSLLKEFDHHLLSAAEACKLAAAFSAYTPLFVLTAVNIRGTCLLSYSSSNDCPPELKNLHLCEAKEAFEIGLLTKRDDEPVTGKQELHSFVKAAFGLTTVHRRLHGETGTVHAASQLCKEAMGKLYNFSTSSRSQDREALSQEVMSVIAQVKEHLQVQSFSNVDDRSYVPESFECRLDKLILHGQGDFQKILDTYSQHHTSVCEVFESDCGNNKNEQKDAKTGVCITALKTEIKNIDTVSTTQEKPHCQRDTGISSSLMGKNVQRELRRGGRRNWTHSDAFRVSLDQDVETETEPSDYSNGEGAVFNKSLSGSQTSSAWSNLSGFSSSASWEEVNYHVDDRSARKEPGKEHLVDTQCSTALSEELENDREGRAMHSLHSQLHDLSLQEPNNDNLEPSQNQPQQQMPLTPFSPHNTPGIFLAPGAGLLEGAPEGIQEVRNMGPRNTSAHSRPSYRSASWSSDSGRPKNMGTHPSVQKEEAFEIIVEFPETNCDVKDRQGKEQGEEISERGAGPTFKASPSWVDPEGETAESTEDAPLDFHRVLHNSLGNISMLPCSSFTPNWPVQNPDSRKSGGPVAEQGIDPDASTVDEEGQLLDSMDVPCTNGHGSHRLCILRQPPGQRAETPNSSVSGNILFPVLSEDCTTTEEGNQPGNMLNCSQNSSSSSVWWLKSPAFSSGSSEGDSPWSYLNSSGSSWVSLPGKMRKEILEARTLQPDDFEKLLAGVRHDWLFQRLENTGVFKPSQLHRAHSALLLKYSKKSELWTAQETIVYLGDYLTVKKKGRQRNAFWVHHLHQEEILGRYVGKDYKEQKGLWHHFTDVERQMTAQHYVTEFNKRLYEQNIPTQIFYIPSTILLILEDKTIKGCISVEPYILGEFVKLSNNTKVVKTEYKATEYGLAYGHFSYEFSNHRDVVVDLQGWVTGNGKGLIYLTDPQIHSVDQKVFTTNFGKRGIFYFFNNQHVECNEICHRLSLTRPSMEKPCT

H1b-ADP's activity to activate ALPK1 in HEK293 cells (IL8 secretion) [1] | H1b-ADP amount on incubation with FBS [5] | Compound | Cxcl1 mRNA expression, fold change over non-treated control [2] | PD-1 and PD-L1 expression in tumor [3] | mRNA expression of CD8, CD4, Foxp3 and T-bet in tumor [3] | mRNA expression of inflammatory cytokine IL-1b, Tnfa, Ifn gamma, and IL-6, and chemokine Cxcl1 in tumor [3] | TIFA phosphorylation ([4]; ALPK1 2 nM, TIFA 1.6 uM, 50 uM ATP, compound 2 nM, 0.4 nM, 80 pM, 16 pM, 3 pM) | IκB phosphorylation [6] | phosphorylation of the ALPK1 substrate TIFA ([4]; FIG. 7, chemically-synthesized compounds) | thermal shift of ALPK1 [7]
greatly declined | the H1b-ADP amount declined | Nc1ncnc2c1ncn2[C@@H]1O[C@H](COP(=O)(O)OP(=O)(O)O[C@@H]2O[C@H]([C@H](O)CO)[C@@H](O)[C@H](O)[C@@H]2O)[C@@H](O)[C@H]1O [Compound H1b-ADP, D-glycero-D-manno-heptose-1β-ADP] | showed a dose-dependent response | increased in H1b-ADP injected tumor | increased upon H1b-ADP injection | increased upon H1b-ADP injection | phosphorylation of the ALPK1 substrate TIFA | IkB phosphorylation was detected only in the presence of both ALPK1 and H1b-ADP in the presence of ATP |  | 
 |  | O=P(O)(O)O[C@@H]1O[C@H]([C@H](O)CO)[C@@H](O)[C@H](O)[C@@H]1O [HMP-1bP, D-glycero-β-D-manno-heptose-1-phosphate] |  |  |  |  |  |  | TIFA is phosphorylated only in the presence of H1b-ADP | Neither HBP nor HMP-1bP were able to induce a thermal shift
